Tests used:
[1] = target: T1, Human-derived ACLY protein (Homo sapiens, UniProt P53396); assay: ACLY citrate cleavage enzyme inhibition, ADP-Glo assay; assay type: biochemical; details: 25 nM enzyme, 30 min, 37° C., read-out: IC50 for inhibition of ACLY enzyme activity (mean ± SD)
T1 construct: purchased Beijing Yiqiao Shenzhou Technology Co., Ltd 11769-H07B
T1 sequence (P53396 1-1101): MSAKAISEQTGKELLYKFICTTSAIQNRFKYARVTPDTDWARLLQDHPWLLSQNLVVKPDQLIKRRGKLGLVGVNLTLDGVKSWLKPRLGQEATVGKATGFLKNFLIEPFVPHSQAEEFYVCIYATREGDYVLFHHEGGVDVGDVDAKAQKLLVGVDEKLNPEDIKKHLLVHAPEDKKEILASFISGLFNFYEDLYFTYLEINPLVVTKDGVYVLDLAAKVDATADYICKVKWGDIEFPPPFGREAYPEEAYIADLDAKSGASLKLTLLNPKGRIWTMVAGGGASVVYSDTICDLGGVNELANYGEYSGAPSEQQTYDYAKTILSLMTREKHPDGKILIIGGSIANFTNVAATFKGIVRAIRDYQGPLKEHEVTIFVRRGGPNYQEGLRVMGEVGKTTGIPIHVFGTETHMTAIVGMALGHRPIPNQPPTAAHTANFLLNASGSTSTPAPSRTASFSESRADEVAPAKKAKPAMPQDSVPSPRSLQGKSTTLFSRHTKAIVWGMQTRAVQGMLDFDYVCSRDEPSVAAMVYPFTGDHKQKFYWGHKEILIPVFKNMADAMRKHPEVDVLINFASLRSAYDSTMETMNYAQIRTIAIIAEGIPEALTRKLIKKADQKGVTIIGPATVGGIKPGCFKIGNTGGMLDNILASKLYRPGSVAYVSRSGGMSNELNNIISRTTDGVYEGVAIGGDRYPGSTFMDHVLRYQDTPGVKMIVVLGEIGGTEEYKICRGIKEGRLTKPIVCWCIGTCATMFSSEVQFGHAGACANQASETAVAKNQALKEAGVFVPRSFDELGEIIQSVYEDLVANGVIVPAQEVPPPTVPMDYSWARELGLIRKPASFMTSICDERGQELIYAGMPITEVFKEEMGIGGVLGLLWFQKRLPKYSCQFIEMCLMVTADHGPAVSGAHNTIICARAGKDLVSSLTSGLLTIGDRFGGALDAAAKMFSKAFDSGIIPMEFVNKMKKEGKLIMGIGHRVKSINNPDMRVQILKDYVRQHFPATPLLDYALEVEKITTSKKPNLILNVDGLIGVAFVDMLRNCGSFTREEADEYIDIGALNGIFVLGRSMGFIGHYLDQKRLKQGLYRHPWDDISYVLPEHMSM
Text: The ACLY-catalyzed citric acid cleavage process requires the consumption of one molecule of ATP to activate citric acid. Based on this reaction principle, the inventors utilized an ADP-Glo assay kit to detect the amount of ATP converted to ADP in response to the catalytic activity of ACLY. After the establishment of the activity measurement system and optimization of the reaction conditions, the inventors evaluated the ACLY inhibitory activity of the obtained novel ACLY small molecule inhibitors.
Activity test protocol: Human-derived ACLY protein was purchased from Beijing Yiqiao Shenzhou Technology Co., Ltd (Item No. 11769-H07B), and ADP-Glo assay kit was purchased from Promega (Item No. V9102). The total volume of the reaction was 5 μL, which consisted of a mixture of three parts: 1 μL of 2% DMSO, 2 μL of the substrate mixture, and 2 μL of the enzyme (final concentration of 25 nM). Then 1 μL of different concentrations of compounds were added for incubation. Reaction conditions: 30 min, 37° C. Then 2.5 μL of ADP Reagent from ADP-Glo Kit was used, mixed well and reacted for 2 h. 5 μL of ADP Detection was added, centrifuged and mixed well. Then the full wavelength value was read from Envision multifunctional plate reader.
Results: Firstly, the cumulative amount of fluorescence intensity of the enzyme in 30 min reaction time (RFU/min) was calculated to represent the initial velocity of the enzyme, and then the ratio of the enzyme's velocity with the addition of compounds (vsample) to the enzyme's velocity without the addition of compounds (vDMSO) was calculated to be the percentage of activity for each concentration group of the samples (Activity rate %), with the formula: % Activity=(V(sample)/(v(DMSO))×100%. The logarithmic value of the concentration was plotted against the activity percentage, and then a non-linear regression was used to calculate the fitted curve. The software GraphPad Prism 8.0 (formula log (inhibitor) vs. response—Variable slope) was used to fit the curve and calculate the IC50 value, and the results are shown in the table below.

[2] = system: primary mouse hepatocytes; assay: Inhibition of de novo lipid synthesis in primary hepatocytes, [1,2-14C]-sodium acetate tracer; assay type: cell-based; details: Hepatocyte, compound 12.5 μM, 4 h, [1,2-14C]-acetate, read-out: Lipid synthesis inhibition (%) (mean ± SD)
Method: Primary hepatic cell isolation and walling: the mouse liver was lavaged by calcium-free perfusate, then digested using collagenase and mouse primary hepatocytes were obtained by density gradient centrifugation, and were inoculated in 6-well plates at a density of 3×10^5/ml (0.2% gelatin was coated before inoculating). After inoculating, the cells were cultured and adhered for 6 h. The medium was changed to serum-free LG-DMEM (containing 2× double antibody) and starved the cells overnight.
Isotope tracing: the next day, the medium was switched to serum-free LG-DMEM containing 10 nM insulin and the corresponding concentration of compounds (1950 μL, 4 replicate wells per group); 0.1 μCi of [1,2-^14C]-acetate serum-free medium was added to each well, and the plates were then incubated for 4 h in the incubator.
Lipid saponification: Add 1.6 mL of ice PBS to each well for washing 3 times, shake the plate to dry and add 600 μL of 0.5 M KOH to each well to lysis for 1 h. Pipette 480 μL into a glass test tube with 400 μL of 20% KOH (methanol was used as solvent), shake and mix well, and then place it in a water bath at 95° C. to saponify for 3 h. The remaining lysate was used for the determination of the concentration of proteins. Add 400 μL of petroleum ether to each tube, pipette 5-6 times and centrifuge at 2500 rpm for 5 min, take 350 μL of the upper layer of the clear solution to the EP tube, and then add 400 μL of petroleum ether to repeat the extraction for 2 times (a total of 3 times). After complete transfer of the supernatant, 200 μL of water and 400 μL of 5N sulfuric acid were added to each tube for acidification, and the mixture was shaken and mixed. Add 400 μL of petroleum ether to each tube, pipette 5-6 times and centrifuge at 2500 rpm for 5 min, take 350 μL of the upper layer of the clear solution to the EP tube, then add 400 μL of petroleum ether and repeat the extraction for 2 times (a total of 3 times). Place in a fume hood and evaporate the petroleum ether overnight.
Isotope participation quantification: 1700 μL of scintillation solution was added to each tube and read.
Data processing and analysis: Firstly, the isotopic reference (R control, unit: CCPM/mg protein) of free fatty acids and cholesterol was calculated for the Control group of untreated mouse primary hepatocytes within 4 hours, which represented the basal synthesis. The percent inhibition of lipid synthesis was then calculated for each concentration group of the sample.

golden hamster = assay: High-fat and high-cholesterol diet-induced hyperlipidemia model of golden hamster; assay type: in vivo; details: for serum LDL cholesterol / serum total cholesterol: 1 time/day, 7 days, vs control group
Text: Dosing regimen: The hyperlipidemia model of golden hamster is recognized as one of the ideal animal models for studying hyperlipidemia drug therapy (pharmacodynamic evaluation). In order to preliminarily investigate the existence of potential regulatory effects of the candidate compounds on hepatic lipid metabolism homeostasis, the high-fat and high-cholesterol diet-induced hyperlipidemia model of golden hamster was utilized for preliminary pharmacodynamic evaluation. The specific protocol was as follows. 56 golden hamsters, males, were modeled on high-fat and high-cholesterol diet (Research diet, item number C11953) for two weeks, and 8 golden hamsters were reserved as blank control group. Subsequently, group administration (7 groups, n=8) was performed, i.e., model control group, positive control ETC-1002 30 mg/kg group, compound A3 10 mg/kg and 30 mg/kg group, compound A4 10 mg/kg and 30 mg/kg group, and blank control group. The compounds in each group were configured with saline (0.9% NaCl) and administered at a frequency of 1 time/day for a 7-day dosing cycle.
Indicator test: The body weight and food intake of golden hamsters were closely monitored during the administration period. After 7 days of administration, blood was collected from the orbital region of each group (starved overnight for about 16 hours), centrifuged to obtain serum, and stored in cryopreservation, and then total cholesterol and LDL cholesterol were detected in the serum. The relative amount of the relevant indexes was calculated as follows: Relative amount (100%)=the amount in the administered group/the amount in the model control group*100%.

[3] = system: primary hepatocytes from WT mice; assay: De novo lipid synthesis in WT primary hepatocytes, [14C]-citric acid tracer; assay type: cell-based; details: WT mouse hepatocytes, [14C]-citric acid substrate
[4] = Oral pharmacokinetics in ICR mice; assay type: in vivo, mouse; details: male, mouse, ICR mice, oral, 30 mg/kg, plasma
Method: Dosing regimen: 6 normal ICR mice, male, were divided into 2 groups (n=3), one group was orally given the positive control ETC-1002, and one group was orally given the tested compound A3, both administered at a dose of 30 mg/kg; blood was taken from the eye orbits at different time points before and after the administration of the drug, and the plasma drug concentration was detected.

[5] = system: ACLY knockdown primary hepatocytes; assay: De novo lipid synthesis in ACLY knockdown primary hepatocytes, [14C]-citric acid tracer; assay type: cell-based, mouse; details: [14C]-citric acid substrate
Text: Test protocol: In order to further investigate the dependence of the inhibitory effect of the series of compounds on de novo lipid synthesis on ACLY, the inventors chose ACLY knockdown primary hepatocytes for further evaluation of de novo lipid synthesis, while compound ETC-1002 was used as a positive control. Specifically, the experimental protocol was as above, and 0.1 μCi/well [^14C]-citric acid was used for tracing.

[6] = golden hamster, during administration

Row | SMILES | IC50 [1] [µM] | inhibition at 12.5 µM [2] [%] | other results
1 | CC(C)(CCCC/C=C/CCCCC(C)(C)C(=O)O)C(=O)O [Compound A1] | 42.3 ± 6.5 |  | 
2 | CC(C)(CCCC/C=C\CCCCC(C)(C)C(=O)O)C(=O)O [Compound A2] | 105 ± 7.1 | 80.9 ± 5.9 | 
3 | CC(C)(CCCC/C=C\CCCCCC(C)(C)C(=O)O)C(=O)O [Compound A4] | 53.9 ± 13.8 | 78.2 ± 4.3 | serum LDL cholesterol (golden hamster; 10 mg/kg): did not change significantly; serum total cholesterol (golden hamster; 10 mg/kg): did not change significantly; serum LDL cholesterol (golden hamster; 30 mg/kg): significantly reduce; serum total cholesterol (golden hamster; 30 mg/kg): significantly reduce; body weight (golden hamster; [6]): significant decrease; food intake (golden hamster; [6]): significant decrease; tolerance observation (golden hamster; [6]): intolerance phenomena such as slowed activity
4 | CC(C)(CCCCC/C=C/CCCCCC(C)(C)C(=O)O)C(=O)O [Compound A5] | 16.7 ± 1.8 | 56.6 ± 7.6 | 
5 | CC(C)(CCCCC/C=C\CCCCCC(C)(C)C(=O)O)C(=O)O [Compound A6] | 25.5 ± 6.8 | 68.7 ± 20.9 | 
6 | CC(C)(CCCCC/C=C/CCCCCCC(C)(C)C(=O)O)C(=O)O [Compound A7] | 12 ± 2.2 |  | 
7 | CC(C)(CCCCC/C=C\CCCCCCC(C)(C)C(=O)O)C(=O)O [Compound A8] | 21.3 ± 9.7 | 21.6 ± 1.3 | 
8 | CC(C)(CCCCCC/C=C/CCCCCCC(C)(C)C(=O)O)C(=O)O [Compound A9] | 25.8 ± 9.2 | 30.9 ± 4.2 | 
9 | CC(C)(CCCCCC/C=C\CCCCCCC(C)(C)C(=O)O)C(=O)O [Compound A10] | 9.6 ± 5.1 | 21.1 ± 11.7 | 
10 | C/C(CCCCCC(C)(C)C(=O)O)=C(\C)CCCCC(C)(C)C(=O)O [Compound A11] | 40.2 ± 2.9 |  | 
11 | CC(C)(CCCCCC1CC1CCCCC(C)(C)C(=O)O)C(=O)O (stereo not shown) [Compound A12] | 56.9 ± 4.7 | 38.7 ± 11.4 | 
12 | CC(C)(CCCCCC(O)CCCCCC(C)(C)C(=O)O)C(=O)O [ETC-1002, Bempedoic acid, reference compound] |  | 46.3 ± 15.3 | de novo synthesis of triglycerides ([3]; FIG. 1 A): significantly inhibited; de novo synthesis of cholesterol ([3]; FIG. 1 B): significantly inhibited; AUC(0-inf) [4]: 15600 ng·h/mL; AUC(0-t) [4]: 14400 ng·h/mL; Cmax [4]: 3810 ng/mL; Tmax [4]: 15 min; half-life [4]: 267 min; MRT inf ([4]; read-out: MRT0-∞): 6.81 h; inhibitory effect on de novo synthesis of cholesterol [5]: significantly attenuated or even the inhibitory effect was not manifested; inhibitory effect on de novo synthesis of triglycerides [5]: significantly attenuated or even the inhibitory effect was not manifested
